Assay results from US20220281848A1, “PYRAZOLE-SUBSTITUTED PYRROLIDINONES AS HERBICIDES” (FMC Corporation, priority 2019, published 2022).

Key:
Assay type in all cases: in vivo
[1] = tested on: ivy-leaved morning glory (Ipomoea hederacea, IPOHE); assay: Test A post-emergence, ivy-leaved morning glory; conditions: after 13 d
In short: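 Visual damage rating (0 no damage to 100 total damage) was made 13 d after spraying. The spray was 15.625, 62.5 or 250 g/ha in 50:50 acetone/water with 0.5% Tween 20, applied to 8-day-old glasshouse plants kept at 24/16° C, 14 h light and 65% humidity.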

wheat = assay: Test D pre-emergence, wheat seed treated with a herbicide safener; conditions: 100=total damage, 0=no damage
In short: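 Damage, on a scale where 100 is total and 0 is none, was scored 15 d after post-emergence spraying (about 12-day-old plants) or 20 DAA after pre-emergence spraying (day 1). Maize and wheat came from herbicide-safener-treated seed and were kept in a glasshouse (24/18 or 20/16 °C, 16 h light, 65% humidity). The spray liquid was the test formulation diluted in 0.2% v/v aqueous adjuvant.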

corn (Zea mays, ZEAMX) = assay: Test A pre-emergence, corn; conditions: after 13 d
In short: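 Values are percent plant damage 13 d after a pre-emergence spray (15.625, 62.5 or 250 g/ha; acetone/water with 0.5% Tween 20) applied to pots one day post-sowing, under glasshouse conditions of 24/16° C. and twice-daily watering.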

plants = assay: Test D post-emergence, other plants of Tables D2 and D4; conditions: "Cereals" Postemergent, evaluated after 15 d
In short: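 Seeds treated with herbicide safener; sown in soil; glasshouse, 16 h light, 65% humidity. Sprayed day 1 (pre) or ~day 12 (post). Spray in 0.2% v/v adjuvant. Scored 0–100 damage: 20 DAA pre, 15 d post.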

Compound: CN1CC(c2cc(C(F)(F)F)n(C)n2)C(C(=O)Nc2cccc(F)c2C(F)(F)F)C1=O (racemic) [Compound 19]
- damage to plant (100=total damage; 0=no damage) IPOHE ([1]; Post-Emergence at 15.625 g/ha): 0
- damage to plant (100=total damage; 0=no damage) IPOHE ([1]; Post-Emergence at 62.5 g/ha): 0
- damage to plant (100=total damage; 0=no damage) IPOHE ([1]; Post-Emergence at 250 g/ha): 0
- damage to plant, TRZAW (wheat; rate 15, 20 DAA): 0
- damage to plant, TRZAW (wheat; rate 30, 20 DAA): 0
- damage to plant, TRZAW (wheat; rate 60, 20 DAA): 0
- damage to plant, TRZAW (wheat; rate 130, 20 DAA): 0
- damage to plant, TRZAW (wheat; rate 250, 20 DAA): 10
- damage to plant, TRZAW (wheat; rate 500, 20 DAA): 60
- damage to plant (100=total damage; 0=no damage) ZEAMX (corn (Zea mays, ZEAMX); Pre-Emergence at 15.625 g/ha): 0
- damage to plant (100=total damage; 0=no damage) ZEAMX (corn (Zea mays, ZEAMX); Pre-Emergence at 62.5 g/ha): 0
- damage to plant (100=total damage; 0=no damage) ZEAMX (corn (Zea mays, ZEAMX); Pre-Emergence at 250 g/ha): 20
- ALOMY damage rating (100=total damage to plant; 0=no damage to plant) (plants; Rates 130): 0
- ALOMY damage rating (100=total damage to plant; 0=no damage to plant) (plants; Rates 250): 0
- ALOMY damage rating (100=total damage to plant; 0=no damage to plant) (plants; Rates 500): 30
- AVEFA damage rating (100=total damage to plant; 0=no damage to plant) (plants; Rates 130): 0
- AVEFA damage rating (100=total damage to plant; 0=no damage to plant) (plants; Rates 250): 10
- AVEFA damage rating (100=total damage to plant; 0=no damage to plant) (plants; Rates 500): 40
- BEAVA damage rating (100=total damage to plant; 0=no damage to plant) (plants; Rates 130): 0
- BEAVA damage rating (100=total damage to plant; 0=no damage to plant) (plants; Rates 250): 10
- BEAVA damage rating (100=total damage to plant; 0=no damage to plant) (plants; Rates 500): 10
- BROTE damage rating (100=total damage to plant; 0=no damage to plant) (plants; Rates 130): 0
- BROTE damage rating (100=total damage to plant; 0=no damage to plant) (plants; Rates 250): 0
- BROTE damage rating (100=total damage to plant; 0=no damage to plant) (plants; Rates 500): 0
- BRSNN damage rating (100=total damage to plant; 0=no damage to plant) (plants; Rates 130): 0
- BRSNN damage rating (100=total damage to plant; 0=no damage to plant) (plants; Rates 250): 20
- BRSNN damage rating (100=total damage to plant; 0=no damage to plant) (plants; Rates 500): 10
- CHEAL damage rating (100=total damage to plant; 0=no damage to plant) (plants; Rates 130): 0
- CHEAL damage rating (100=total damage to plant; 0=no damage to plant) (plants; Rates 250): 0
- CHEAL damage rating (100=total damage to plant; 0=no damage to plant) (plants; Rates 500): 40
- GALAP damage rating (100=total damage to plant; 0=no damage to plant) (plants; Rates 130): 0
- GALAP damage rating (100=total damage to plant; 0=no damage to plant) (plants; Rates 250): 0
- GALAP damage rating (100=total damage to plant; 0=no damage to plant) (plants; Rates 500): 20
- HORVW damage rating (100=total damage to plant; 0=no damage to plant) (plants; Rates 130): 0
- HORVW damage rating (100=total damage to plant; 0=no damage to plant) (plants; Rates 250): 0
- HORVW damage rating (100=total damage to plant; 0=no damage to plant) (plants; Rates 500): 40
- KCHSC damage rating (100=total damage to plant; 0=no damage to plant) (plants; Rates 130): 0
- KCHSC damage rating (100=total damage to plant; 0=no damage to plant) (plants; Rates 250): 0
- KCHSC damage rating (100=total damage to plant; 0=no damage to plant) (plants; Rates 500): 0
- LOLPE damage rating (100=total damage to plant; 0=no damage to plant) (plants; Rates 130): 0
- LOLPE damage rating (100=total damage to plant; 0=no damage to plant) (plants; Rates 250): 0
- LOLPE damage rating (100=total damage to plant; 0=no damage to plant) (plants; Rates 500): 10
- POAAN damage rating (100=total damage to plant; 0=no damage to plant) (plants; Rates 130): 0
- POAAN damage rating (100=total damage to plant; 0=no damage to plant) (plants; Rates 250): 30
- POAAN damage rating (100=total damage to plant; 0=no damage to plant) (plants; Rates 500): 40
- POLCO damage rating (100=total damage to plant; 0=no damage to plant) (plants; Rates 130): 0
- POLCO damage rating (100=total damage to plant; 0=no damage to plant) (plants; Rates 250): 0
- POLCO damage rating (100=total damage to plant; 0=no damage to plant) (plants; Rates 500): 0
- SINAR damage rating (100=total damage to plant; 0=no damage to plant) (plants; SINAR, Rates 500): 20
- STEME damage rating (100=total damage to plant; 0=no damage to plant) (plants; Rates 130): 0
- STEME damage rating (100=total damage to plant; 0=no damage to plant) (plants; Rates 250): 0
